Common to all, as to format: cell-based, human
For experiment [1], the system named is DISC macro-complex (Fas/FADD/Caspase-8). In words: DISC formation: Fas immunoprecipitation and Western blot. As to conditions: vs untreated cells. The method, then:
Cells were incubated with 1 μg/ml APO1-3 for 30 minutes at 4° C. After washing, cells were incubated for 15 minutes at 4° C. (0 minutes) or at 37° C. (15 minutes) and then lysed for 30 minutes at 4° C. in a lysis buffer (25 mM HEPES pH 7.4, 1% Triton X-100, 150 mM NaCl, 2 mM EDTA, a cocktail including protease inhibitors (Sigma)). The lysed cells were then centrifugated for 15 minutes at 15000 rpm in order to eliminate genomic DNA, and the supernatant was kept. The sepharose beads which were coupled with protein A were added to the lysate and the mixture was incubated for 2 hours. The beads were recovered, washed intensively and the immunoprecipitated proteins were re-suspended in a denaturing and reducing buffer (0.01M Tris-HCl pH6.8, 10% glycerol (v/v), 85 mM sodium dodecyl sulfate (SDS), 5% (v/v) […] and 0.005% (w/v) bromophenol blue) then heated at 100° C. for 5 minutes. The samples were deposited in an acrylamide/Bisacrylamide gel and separated by electrophoresis. The proteins were transferred from the gel into a nitrocellulose membrane using a semi-dry medium transfer technique for 2 hours at constant amperage (0.8 mA/cm^2). […] After transfer, the nitrocellulose membrane was saturated with proteins for 30 minutes with a TBST buffer (50 mM Tris pH=8, 0.15M sodium chloride, 0.05% (v/v) Tween-20) containing 5% (w/v) skimmed powdered milk (TBSTM). After washing with TBST, the membrane was incubated for 2 hours with the primary antibody in TBST. The membrane was washed intensively then incubated for one hour with TBST containing the secondary peroxidase-coupled antibody. […] This solution contained a substrate metabolised by peroxidase to yield a luminescent compound, which allowed marking a radiographic film (Amersham).

The subject of experiment [2] is T and B leukemia/lymphoma cell lines and activated PBLs treated with FasL. In words: Fas/CD95-mediated cell death (MTT test). The method, then: 2 to 4.10^4 cells were deposited in wells in a 96-well plate. The cells were incubated, in the presence of the different reactants for the times specified, at 37° C. in a final volume of 100 or 200 μl.
The MTT test enabled to measure the activity of a mitochondrial enzyme, the dehydrogenase succinate which transforms MTT (or 3-(4,5-dimethylthiazol-2-yl)-2,5-diphenyltetrazolium) bromide originally yellow in colour and soluble, into blue formazan crystals, insoluble in aqueous phase. Upon completion of the different treatments, the living cells were quantified by adding in each well 15 μl PBS (Phosphate Buffered Saline) containing 5 mg/ml MTT. […] Spectrophotometric reading of absorbance was done at 570 nm. The measurement of the optical density is directly proportional to the number of living cells and the percentage of cell death was calculated with the following formula: 100-[(DO treated cells/DO non-treated cells)*100].
(Tetrazolium assays rely on reduction of a dye to a coloured formazan, in cell work by metabolically active cells.)

The subject of experiment [3] is intracellular calcium concentration. In words: Intracellular Ca2+ concentration, indo-1 (micro)spectrofluorimetry. The method, then:
Principle: [Ca^2+]i was measured by microspectrofluorimetry using a calcium sensitive fluorescent probe: indo-1. When excited at 360 nm wavelength, the so-called monoexcitation/double emission indo-1 probe transmitted back in a spectrum ranging from 400 to 500 nm. Binding of Ca^2+ to indo-1 caused displacement of the emission spectrum after excitation. The emission maximum in the unbound form was located around 480 nm. The emission of the complexed form was around 405 nm. An increase of calcium concentration thus caused the emission to increase to 405 nm and the emission to decrease to 480 nm. The ratio of both fluorescence intensities allowed to be independent from the quantity of the probe and to determine the [Ca^2+]i according to the Grynkiewicz equation:
[Ca^2+]i(nM)=Kd.β×(R−Rmin)/(Rmax−R)
Rmax, Rmin and Kd. β were determined by combining electrophysiology (patch clamp) and spectrofluorimetry. Rmax was determined by placing in the patch pipette a medium containing 10 mM CaCl2. Rmin was obtained by placing as an intrapipette solution a calcium-deprived medium (10 mM EGTA).
The cells were then rinsed with HBSS (800 rpm centrifugation for 2 minutes) and placed in an observation chamber on a glass coverslip. […] The excitation light is supplied by a Xenon lamp (100W). […] The substances to be tested were applied using a glass pipette positioned at some twenty μm of the studied cell and connected to a pneumatic system.
The principle as well as the loading of the cells were identical with the measurement on single cells. In such a case, approx. 40,000 cells were placed in a quartz tub under constant agitation. The tub was then placed in a Hitachi spectrofluorimeter whereof the excitation monochromator was set to 350 nm. […] The signals were transmitted to a computer via an analogue/digital converter. So as to be able to apply the Grynkiewicz equation (see above) and translate the fluorescence ratios measured in calcium values, the calibration parameters were entered into the software. The substances to be tested were applied directly in the tube under constant agitation.

Experiment [4] concerns CD95. Kind of experiment: CD95 capping (CD95-CAP), fluorescence confocal microscopy. As to conditions: leukemic cell lines; culture up to 24 hours. The method, then: The cells were left to adhere on a slide pre-treated with poly-L-lysin (ESCO, VWR) for 5 minutes then incubated with the different reactants. The cells activated with the anti-Fas APO1-3 agonist antibody were washed and marked directly with the anti-mouse secondary antibody coupled with Alexa555 fluorochrome. The cells incubated with Rituximab (anti-CD20) were washed in a cold PBS buffer then fixed with a PBS/4% PFA (paraformaldehyde) solution for 15 min. […] The cells were washed in PBS medium then the slide was dried and the cells were placed in a mounting medium, Fluoroprep (Biomerieux) and analysed by fluorescence confocal microscopy (LSM SP5, Leica, Germany) with an x63 zoom. The DAPI (200 ng/ml) allowed colouring the nuclei.

Experiment [5] concerns the target caspase-8. Kind of experiment: Caspase-8 activation/cleavage.

Entries after “also recorded” stand apart in the source; their conditions may differ.

On to `CC(=O)OCOC(=O)CN(CC(=O)OCOC(C)=O)c1ccccc1OCCOc1ccccc1N(CC(=O)OCOC(C)=O)CC(=O)OCOC(C)=O` [BAPTA-AM, 1,2-bis-(o-Aminophenoxy)ethane-N,N,N′,N′-tetraacetic tetra-(acetoxymethyl) acid Ester], for which the “DISC formation / FADD recruitment upon CD95 stimulation” value in experiment [1] (H9, Jurkat, activated PBTs, non-cytotoxic concentrations) was “dramatically improved the DISC formation; also recorded: induction of DISC formation”. Besides, in experiment [1] (H9 cells, BAPTA-AM 1-10 μM or ionomycine 1 μM pre-incubation, then anti-Fas APO1-3 1 μg/ml 15 min 37° C.), the “formation of the DISC macro-complex” value is “enhanced formation of the DISC macro-complex”. Moreover, the “sensitisation to the Fas-mediated apoptotic signal (% cell death)” value in experiment [2] (BAPTA-AM 1 μM pre-incubation then FasL, leukemia/lymphoma cell lines and activated PBLs) is “sensitised to the Fas-mediated apoptotic signal; also recorded: increase in percentage of cell death”; in experiment [2] (BAPTA-AM 1 μM then FasL, BL2 cell line devoid of endogenous Fas) it was “have not been sensitised”. For the same compound, the “CD95-mediated apoptotic signal in CD95-resistant cells” value in experiment [2] (Jurkat-CD95Q257K, pre-incubation with non-cytotoxic doses) is recorded as “restored the CD95-mediated apoptotic signal at a level comparable to the parental cell line”. Moreover, the “apoptotic signal by the agent alone” value in experiment [2] (leukemic cell lines, long-term culture up to 24 hours, no CD95L) is listed as “did not trigger the apoptotic signal”. Besides, the “increase in intracellular calcium in response to extracellular 3 mM Ca2+” value in experiment [3] (Raji, BAPTA-AM 10 μM pretreatment) is “smaller increase in the intracellular calcium concentration”. Besides, in experiment [3] (non-cytotoxic concentrations, CD95 stimulation), the “CD95-mediated peak of calcium” value is given as “totally abrogated the CD95-mediated peak of calcium”. The “basal [Ca2+]i” value in experiment [3] (pre-incubation of cells) is “induced a faint decrease in the basal [Ca^2+]i”. Also, the CD95-CAP formation entry in experiment [4] is “drives CD95-CAP”. The “kinetic of caspase-8 cleavage upon CD95L” value in experiment [5] (T and B-cell lines) is given as “accelerated the cleavage of the initiator caspase-8”. In addition, the “caspase-8 activation or mitochondrial depolarization by the agent alone” value in experiment [5] (during 60 minutes treatment, no CD95L) is given as “no trace of caspase-8 activation or mitochondrial depolarization was detected”.
